This series in a line: Henry solubility constant Hcp at 298.15 K (mol/(m3 Pa)). Conditions: reference: Abusallout et al. (2022).
For `C=CC(=O)OCCC(F)(F)C(F)(F)C(F)(F)C(F)(F)C(F)(F)C(F)(F)C(F)(F)C(F)(F)F`, the “Henry solubility constant Hcp” value is 0.0013. The same measure for `FC(F)(F)C(F)(F)C(F)(F)C(F)(F)C(F)(F)C(F)(F)CCI` [1,1,1,2,2,3,3,4,4,5,5,6,6-tridecafluoro-8-iodooctane]: 0.0013. Regarding `OCCC(F)(F)C(F)(F)C(F)(F)C(F)(F)C(F)(F)C(F)(F)C(F)(F)C(F)(F)C(F)(F)C(F)(F)F` [1,1,2,2-tetrahydroperfluoro dodecanol], the “Henry solubility constant Hcp” value was 0.00014.

On to `OCCC(F)(F)C(F)(F)C(F)(F)C(F)(F)C(F)(F)C(F)(F)F` [1H,1H,2H,2H-perfluoro-1-octanol], for which the “Henry solubility constant Hcp” value stood at 0.00033. Consider `OCCC(F)(F)C(F)(F)C(F)(F)C(F)(F)C(F)(F)C(F)(F)C(F)(F)C(F)(F)F` [1H,1H,2H,2H-perfluorodecan-1-ol], for which the “Henry solubility constant Hcp” value came out at 0.0002. With `O=S(=O)(O)CCC(F)(F)C(F)(F)C(F)(F)C(F)(F)C(F)(F)C(F)(F)C(F)(F)C(F)(F)F` [1H,1H,2H,2H-perfluorodecane sulfonic acid], the “Henry solubility constant Hcp” value is 0.0022. The same measure for `OCCC(F)(F)C(F)(F)C(F)(F)C(F)(F)F` [1H,1H,2H,2H-perfluorohexan-1-ol]: 0.0013; for `O=S(=O)(O)CCC(F)(F)C(F)(F)C(F)(F)C(F)(F)F` [1H,1H,2H,2H-perfluorohexane sulfonic acid]: 0.0045.

Consider `O=S(=O)(O)CCC(F)(F)C(F)(F)C(F)(F)C(F)(F)C(F)(F)C(F)(F)F` [1H,1H,2H,2H-perfluorooctane sulfonic acid], for which the “Henry solubility constant Hcp” value is 0.0021. As to `FC(F)(F)C(F)(F)C(F)(F)C(F)(F)C(F)(F)C(F)(F)/C=C/I` [1H,2H-perfluoro-1-iodooct-1-ene], the “Henry solubility constant Hcp” value was found to be 0.00084. As for `O=C(O)CC(F)(F)C(F)(F)C(F)(F)C(F)(F)C(F)(F)C(F)(F)C(F)(F)C(F)(F)F` [2H,2H-perfluorodecanoic acid], the “Henry solubility constant Hcp” value came out at 0.00058. As for `C=CC(F)(F)C(F)(F)C(F)(F)C(F)(F)C(F)(F)C(F)(F)F` [(perfluorohexyl)ethene], the “Henry solubility constant Hcp” value worked out at 0.00011. For `CCNS(=O)(=O)C(F)(F)C(F)(F)C(F)(F)C(F)(F)C(F)(F)C(F)(F)C(F)(F)C(F)(F)F` [N-ethylperfluorooctanesulfonamide], the “Henry solubility constant Hcp” value came to 0.00094. On to `CNS(=O)(=O)C(F)(F)C(F)(F)C(F)(F)C(F)(F)C(F)(F)C(F)(F)C(F)(F)C(F)(F)F` [N-methylperfluorooctanesulphonamide], for which the “Henry solubility constant Hcp” value was 0.00044.

Consider `FC(F)(F)C(F)(F)C(F)(F)C(F)(F)C(F)(F)C(F)(F)I` [perfluorohexyl iodide], for which the “Henry solubility constant Hcp” value is 0.00046.

(Values after Sander's compilation of Henry's law constants (doi:10.1016/j.hazl.2022.100070).)
